Marks after values point to notes of the source that are not given here.
Experiments:
Septoria tritici = test: Test F: wheat leaf blotch, preventive spray on wheat seedlings, visual disease rating; assay type: in vivo; design: pest or weed control: dose or concentration left out as unconfirmed; details: for Test F rating (% disease control) / pest or weed control / Test F rating (% disease control), marked *: preventive spray; for Test F rating (% disease control): rating without asterisk; for pest or weed control / Test F rating (% disease control), marked *: rating marked with asterisk (*), other test suspension concentration than unmarked ratings
Text: A hyphen (-) indicates no test results.

Botrytis cinerea = test: Test A: tomato Botrytis, preventive spray on tomato seedlings, visual disease rating; details: for Test A rating (% disease control) / Test A rating (% disease control), marked *: tomato Botrytis, preventive spray; for Test A rating (% disease control): 0 = no control relative to controls, rating without asterisk; for pest or weed control at 40 µg/mL: read-out: Test A rating (% disease control), marked *, tomato Botrytis, preventive spray; for pest or weed control at 40 µg/mL / Test A rating (% disease control), marked *: rating marked with asterisk (*), other test suspension concentration than unmarked ratings
[1] = test system: Puccinia recondita f. sp. tritici; test: Test H: wheat leaf rust, preventive spray on wheat seedlings, visual disease rating; details: for Test H rating (% disease control) / Test H rating (% disease control), marked *: wheat leaf rust, preventive spray; for Test H rating (% disease control): rating without asterisk; for pest or weed control at 40 µg/mL: read-out: Test H rating (% disease control), marked *, wheat leaf rust, preventive spray; for pest or weed control at 40 µg/mL / Test H rating (% disease control), marked *: rating marked with asterisk (*), other test suspension concentration than unmarked ratings
[2] = test system: Blumeria graminis f. sp. tritici; test: Test I: wheat powdery mildew, preventive spray on wheat seedlings, visual disease rating; details: for Test I rating (% disease control) / Test I rating (% disease control), marked *: wheat powdery mildew, preventive spray; for Test I rating (% disease control): rating without asterisk; for pest or weed control at 40 µg/mL: read-out: Test I rating (% disease control), marked *, wheat powdery mildew, preventive spray; for pest or weed control at 40 µg/mL / Test I rating (% disease control), marked *: rating marked with asterisk (*), other test suspension concentration than unmarked ratings
Procedure: General protocol for preparing test suspensions for Tests A-I: the test compounds were first dissolved in acetone in an amount equal to 3% of the final volume and then suspended at the desired concentration (in ppm) in acetone and purified water (50/50 mix by volume) containing 250 ppm of the surfactant Trem® 014 (polyhydric alcohol esters). The resulting test suspensions were then used in Tests A-I. Each test was conducted in triplicate, and the results were averaged. Spraying a 200 ppm test suspension to the point of run-off on the test plants was the equivalent of a rate of about 800 g/ha. Unless otherwise indicated, the rating values indicate a 200 ppm test suspension was used. (An asterisk “*” next to the rating value indicates a 40 ppm test suspension was used.)
The test suspension was sprayed to the point of run-off on wheat seedlings. The following day the seedlings were inoculated with a spore dust of Blumeria graminis f. sp. tritici (also known as Erysiphe graminis f. sp. tritici, the causal agent of wheat powdery mildew) and incubated in a growth chamber at 20° C. for 8 days, after which time visual disease ratings were made.

Septoria nodorum = test: Test E: Septoria glume blotch, preventive spray on wheat seedlings, visual disease rating; details: Septoria glume blotch on wheat, preventive spray; rating marked with asterisk (*), other test suspension concentration than unmarked ratings
[3] = Botrytis cinerea, in Solanum lycopersicum
[4] = Blumeria graminis, in Triticum aestivum

| SMILES | Test F rating (% disease control) (Septoria tritici; 100 = 100% disease control) [%] | Test A rating (% disease control) (Botrytis cinerea; 100 = 100% disease control) [%] | Test H rating (% disease control) ([1]; 100 = 100% disease control) [%] | Test I rating (% disease control) ([2]; 100 = 100% disease control) [%] | also measured |
| --- | --- | --- | --- | --- | --- |
| Cc1nn(C)c(Nc2c(F)cc(Cl)cc2F)c1-c1ccc(C#N)cc1F [Compound 150, 4-[5-[(4-chloro-2,6-difluorophenyl)amino]-1,3-dimethyl-1H-pyrazol-4-yl]-3-fluorobenzonitrile] |  |  |  |  | pest or weed control at 200 µg/mL (Septoria tritici; Zymoseptoria tritici, 100 = 100% disease control, 0 = no disease control relative to the controls): 100%; pest or weed control at 200 µg/mL (Botrytis cinerea; Botrytis cinerea, in Solanum lycopersicum, read-out: Test A rating (disease control), tomato Botrytis, 100 = 100% disease control, 0 = no disease control relative to the controls): 100%; pest or weed control at 200 µg/mL ([1]; read-out: Test H rating (disease control), wheat leaf rust, sprayed the day before inoculation, 100 = 100% disease control, 0 = no disease control): 100%; pest or weed control at 200 µg/mL ([2]; Blumeria graminis, in Triticum aestivum, read-out: Test I rating (disease control), wheat powdery mildew, 100 = 100% disease control, 0 = no disease control relative to the controls): 100% |
| Cc1nn(C)c(Nc2ccc(F)cc2Cl)c1-c1ccc(C#N)cc1F [Compound 248] | 100 | 99 | 99 | 99 |  |
| COc1ccc(-c2c(C)nn(C)c2Nc2c(C)cccc2Cl)c(F)c1 [Compound 257, N-(2-chloro-6-methylphenyl)-4-(2-fluoro-4-methoxyphenyl)-1,3-dimethyl-1H-pyrazol-5-amine] |  |  |  |  | Test E rating (% disease control), marked * (Septoria nodorum): 31* %; pest or weed control (Septoria tritici; Zymoseptoria tritici): 100%; pest or weed control at 40 µg/mL (Botrytis cinerea; [3]): 100%; pest or weed control at 40 µg/mL [1]: 63%; pest or weed control at 40 µg/mL [2, 4]: 27% |
| COc1ccc(-c2c(C)nn(C)c2Nc2c(C)cccc2Br)c(F)c1 [Compound 258, N-(2-bromo-6-methylphenyl)-4-(2-fluoro-4-methoxyphenyl)-1,3-dimethyl-1H-pyrazol-5-amine] |  |  |  |  | Test E rating (% disease control), marked * (Septoria nodorum): 0* %; pest or weed control (Septoria tritici; Zymoseptoria tritici): 100%; pest or weed control at 40 µg/mL (Botrytis cinerea; [3]): 100%; pest or weed control at 40 µg/mL [1]: 9%; pest or weed control at 40 µg/mL [2, 4]: 0% |
| COc1ccc(-c2c(C)nn(C)c2Nc2c(C)cccc2F)c(F)c1 [Compound 259, 4-(2-fluoro-4-methoxyphenyl)-N-(2-fluoro-6-methylphenyl)-1,3-dimethyl-1H-pyrazol-5-amine] |  |  |  |  | Test E rating (% disease control), marked * (Septoria nodorum): 0* %; pest or weed control (Septoria tritici; Zymoseptoria tritici): 100%; pest or weed control at 40 µg/mL (Botrytis cinerea; [3]): 100%; pest or weed control at 40 µg/mL [1]: 82%; pest or weed control at 40 µg/mL [2, 4]: 90% |
| COc1ccc(-c2c(C)nn(C)c2Nc2c(F)cccc2Br)c(F)c1 [Compound 261, N-(2-bromo-6-fluorophenyl)-4-(2-fluoro-4-methoxyphenyl)-1,3-dimethyl-1H-pyrazol-5-amine] |  |  |  |  | Test E rating (% disease control), marked * (Septoria nodorum): 0* %; pest or weed control (Septoria tritici; Zymoseptoria tritici): 100%; pest or weed control at 40 µg/mL [1]: 97%; pest or weed control at 40 µg/mL [2, 4]: 95% |
| Cc1cccc(C)c1Nc1c(-c2ccc(F)cc2F)c(C)nn1C [Compound 270, 4-(2,4-difluorophenyl)-N-(2,6-dimethylphenyl)-1,3-dimethyl-1H-pyrazol-5-amine] |  |  |  |  | pest or weed control (Septoria tritici; Zymoseptoria tritici): 100%; pest or weed control at 40 µg/mL (Botrytis cinerea; [3]): 98%; pest or weed control at 40 µg/mL [1]: 41%; pest or weed control at 40 µg/mL [2, 4]: 91% |
| Cc1cccc(C)c1Nc1c(-c2ccc(F)cc2Cl)c(C)nn1C [Compound 271, 4-(2-chloro-4-fluorophenyl)-N-(2,6-dimethylphenyl)-1,3-dimethyl-1H-pyrazol-5-amine] |  |  |  |  | pest or weed control (Septoria tritici; Zymoseptoria tritici): 100%; pest or weed control at 40 µg/mL (Botrytis cinerea; [3]): 99%; pest or weed control at 40 µg/mL [1]: 97%; pest or weed control at 40 µg/mL [2, 4]: 98% |
| Cc1cccc(Cl)c1Nc1c(-c2ccc(F)cc2Br)c(C)nn1C [Compound 276, 4-(2-bromo-4-fluorophenyl)-N-(2-chloro-6-methylphenyl)-1,3-dimethyl-1H-pyrazol-5-amine] |  |  |  |  | pest or weed control (Septoria tritici; Zymoseptoria tritici): 100%; pest or weed control at 40 µg/mL (Botrytis cinerea; [3]): 100%; pest or weed control at 40 µg/mL [1]: 99%; pest or weed control at 40 µg/mL [2, 4]: 92% |
| Cc1nn(C)c(Nc2ccc(F)cc2Cl)c1-c1ccc(Br)cc1F [compound 232] | 100 | 79 | 90 | 99 |  |
| Cc1nn(C)c(Nc2c(Cl)cc(F)cc2Cl)c1-c1ccc(Br)cc1F [compound 233] | 100 | 36 | 91 | 89 |  |
| Cc1nn(C)c(Nc2c(F)cc(F)cc2Cl)c1-c1ccc(Br)cc1F [compound 234] | 100 | 97 | 91 | 79 |  |
| Cc1nn(C)c(Nc2c(F)cc(F)cc2Br)c1-c1ccc(Br)cc1F [compound 235] | 100 | 99 | 96 | 90 |  |
| Cc1nn(C)c(Nc2c(F)cc(Cl)cc2F)c1-c1ccc(Br)cc1F [compound 236] | 100 | 47 | 28 | 0 |  |
| Cc1nn(C)c(Nc2c(F)cc(Cl)cc2Cl)c1-c1ccc(Br)cc1F [compound 237] | 100 | 99 | 92 | 95 |  |
| Cc1nn(C)c(Nc2ccccc2Br)c1-c1ccc(F)cc1Br [compound 242] |  |  |  |  | Test F rating (% disease control), marked * (Septoria tritici): 100* %; Test A rating (% disease control), marked * (Botrytis cinerea): 99* %; Test H rating (% disease control), marked * [1]: 96* %; Test I rating (% disease control), marked * [2]: 99* % |
| Cc1nn(C)c(Nc2ccccc2I)c1-c1ccc(F)cc1Br [compound 243] | 100 | 100 | 99 | 100 |  |
| Cc1nn(C)c(Nc2ccccc2I)c1-c1ccc(F)cc1F [compound 246] | 100 | 100 | 98 | 99 |  |
| Cc1nn(C)c(Nc2c(Cl)cc(F)cc2Cl)c1-c1ccc(C#N)cc1F [compound 249] | 100 | 100 | 98 | 92 |  |
| Cc1nn(C)c(Nc2c(F)cc(F)cc2C#N)c1-c1ccc(C#N)cc1F [compound 250] | 100 | 0 | 100 | 89 |  |
| Cc1nn(C)c(Nc2c(Cl)cccc2Cl)c1-c1ccc(F)cc1F [compound 251] | 100 | 100 | 100 | 100 |  |
| Cc1nn(C)c(Nc2c(Cl)cccc2Cl)c1-c1ccc(F)cc1Cl [compound 255] |  |  |  |  | Test F rating (% disease control), marked * (Septoria tritici): 100* %; Test A rating (% disease control), marked * (Botrytis cinerea): 100* %; Test H rating (% disease control), marked * [1]: 99* %; Test I rating (% disease control), marked * [2]: 81* % |
| Cc1nn(C)c(Nc2c(Cl)cccc2Cl)c1-c1ccc(F)cc1Br [compound 256] |  |  |  |  | Test F rating (% disease control), marked * (Septoria tritici): 100* %; Test A rating (% disease control), marked * (Botrytis cinerea): 99* %; Test H rating (% disease control), marked * [1]: 95* %; Test I rating (% disease control), marked * [2]: 64* % |
| Cc1nn(C)c(Nc2ccccc2Cl)c1-c1ccc(F)cc1Br [compound 272] | 100 | 100 | 99 | 100 |  |

Reference: patent publication US20170150719A1, “FUNGICIDAL PYRAZOLES AND THEIR MIXTURES” (E I DU PONT DE NEMOURS AND COMPANY, priority 2010, published 2017)
